The structures appear in SMILES notation. Calls of active or inactive are those of the source. No cut-off for these calls is given here.

Experiment [1] addresses Lysosome-associated membrane glycoprotein 2 (Homo sapiens) (UniProt P13473). Kind of experiment: Binding affinity to Lamp2 (unknown origin) assessed as fold change in protein upregulation at 200 uM preincubated for 2 hrs followed by pronase addition and measured after 30 mins by coomassie blue staining based SDS-PAGE gel analysis.
Experiment [2] deals with RAW264.7. The experiment can be described thus: Antiinflammatory activity against LPS-induced mouse RAW264.7 cells assessed as reduction in COX-2 protein level at 20 uM. The class given is functional, cell-based.
In experiment [3] the target is Collagen alpha-1(I) chain (Homo sapiens) (UniProt P02452). Kind of experiment: Binding affinity to Col1a1 (unknown origin) at 200 uM preincubated for 2 hrs followed by pronase addition and measured after 30 mins by coomassie blue staining based SDS-PAGE gel analysis.
The target of experiment [4] is Sorting nexin-3 (Homo sapiens) (UniProt O60493). The experiment can be described thus: Binding affinity to Snx3 (unknown origin) assessed as fold change in protein upregulation at 200 uM preincubated for 2 hrs followed by pronase addition and measured after 30 mins by coomassie blue staining based SDS-PAGE gel analysis.
The test system of experiment [5] is NRK-52E. Kind of experiment: Anti-renal-fibrosis activity in TGF-beta1 induced rat NRK-52E cells assessed as downregulation of alpha-SMA expression at 40 uM. The format is functional, cell-based.

Sequence of Sorting nexin-3 (Homo sapiens) (O60493 whole entry): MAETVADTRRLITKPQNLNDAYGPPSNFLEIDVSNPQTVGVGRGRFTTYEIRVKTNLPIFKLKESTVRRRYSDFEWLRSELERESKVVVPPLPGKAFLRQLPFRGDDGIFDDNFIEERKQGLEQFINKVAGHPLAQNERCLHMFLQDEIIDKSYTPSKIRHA
Sequence of Lysosome-associated membrane glycoprotein 2 (Homo sapiens) (P13473 whole entry): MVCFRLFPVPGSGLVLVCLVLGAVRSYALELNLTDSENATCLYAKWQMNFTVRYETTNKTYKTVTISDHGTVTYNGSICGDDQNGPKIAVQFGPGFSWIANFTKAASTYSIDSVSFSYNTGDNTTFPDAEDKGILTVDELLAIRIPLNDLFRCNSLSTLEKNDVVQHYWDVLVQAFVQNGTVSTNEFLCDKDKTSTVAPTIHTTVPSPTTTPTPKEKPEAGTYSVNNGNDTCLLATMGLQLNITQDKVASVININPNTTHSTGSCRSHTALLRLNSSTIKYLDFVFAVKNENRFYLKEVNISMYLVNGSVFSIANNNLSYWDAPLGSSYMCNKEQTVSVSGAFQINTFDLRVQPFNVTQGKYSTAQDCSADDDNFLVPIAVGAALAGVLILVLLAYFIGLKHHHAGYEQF
Sequence of Collagen alpha-1(I) chain (Homo sapiens) (P02452 whole entry): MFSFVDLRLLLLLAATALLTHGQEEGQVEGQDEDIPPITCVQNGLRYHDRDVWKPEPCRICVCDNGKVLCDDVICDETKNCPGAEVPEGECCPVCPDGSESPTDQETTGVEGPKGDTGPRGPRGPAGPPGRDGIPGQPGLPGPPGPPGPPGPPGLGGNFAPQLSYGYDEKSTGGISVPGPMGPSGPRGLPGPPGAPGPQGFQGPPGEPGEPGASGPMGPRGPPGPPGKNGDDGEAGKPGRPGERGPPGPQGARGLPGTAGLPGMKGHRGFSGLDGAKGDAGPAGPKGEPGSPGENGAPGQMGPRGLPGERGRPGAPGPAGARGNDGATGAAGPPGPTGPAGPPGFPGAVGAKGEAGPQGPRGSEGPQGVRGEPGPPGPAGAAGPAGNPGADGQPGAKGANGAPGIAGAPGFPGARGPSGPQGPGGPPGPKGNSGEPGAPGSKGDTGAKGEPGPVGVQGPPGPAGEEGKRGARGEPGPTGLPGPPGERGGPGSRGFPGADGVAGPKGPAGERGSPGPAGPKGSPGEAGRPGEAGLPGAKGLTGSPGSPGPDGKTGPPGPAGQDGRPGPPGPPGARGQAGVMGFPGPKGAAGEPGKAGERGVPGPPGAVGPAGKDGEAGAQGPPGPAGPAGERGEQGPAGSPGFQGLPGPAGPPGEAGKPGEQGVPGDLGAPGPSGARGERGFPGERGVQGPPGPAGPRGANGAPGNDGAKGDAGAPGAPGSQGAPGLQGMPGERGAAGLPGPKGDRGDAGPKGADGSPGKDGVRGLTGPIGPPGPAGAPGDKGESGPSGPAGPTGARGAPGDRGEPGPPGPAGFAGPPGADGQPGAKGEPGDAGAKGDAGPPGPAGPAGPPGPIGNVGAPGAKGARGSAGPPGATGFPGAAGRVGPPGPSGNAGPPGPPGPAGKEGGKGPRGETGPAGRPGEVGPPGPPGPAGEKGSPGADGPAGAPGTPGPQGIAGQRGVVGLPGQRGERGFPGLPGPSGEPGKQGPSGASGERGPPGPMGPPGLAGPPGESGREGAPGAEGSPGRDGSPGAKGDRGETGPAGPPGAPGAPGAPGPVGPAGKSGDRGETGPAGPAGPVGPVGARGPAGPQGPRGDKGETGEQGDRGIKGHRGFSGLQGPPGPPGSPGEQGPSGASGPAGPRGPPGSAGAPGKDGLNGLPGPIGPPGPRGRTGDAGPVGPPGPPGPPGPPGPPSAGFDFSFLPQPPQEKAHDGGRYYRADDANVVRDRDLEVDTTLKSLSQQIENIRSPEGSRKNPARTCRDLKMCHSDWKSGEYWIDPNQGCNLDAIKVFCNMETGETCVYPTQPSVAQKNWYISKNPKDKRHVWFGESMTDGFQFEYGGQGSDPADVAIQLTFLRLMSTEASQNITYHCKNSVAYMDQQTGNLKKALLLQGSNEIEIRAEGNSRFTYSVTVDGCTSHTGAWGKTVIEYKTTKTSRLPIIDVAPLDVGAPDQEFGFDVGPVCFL

As for `COc1c(O)nc2c(O)cccc2c1OC`, the fold change (FC) is 2.42 in experiment [1] and 1.67 in experiment [4]. The outcome in experiment [2], in experiment [3] and in experiment [5] was Active.

For the origin of these results see ChEMBL document CHEMBL5335856, “Structurally Diverse Alkaloids with Anti-Renal-Fibrosis Activity from the Centipede Scolopendra subspinipes mutilans” (J Nat Prod, 2024).
